# Legend:
# [1] = tested on: rat Cerebellar Granular Cells (CGC); assay: Cell viability (MTT) of CGC exposed to IAPP 20-29 monomer or aggregated; assay type: cell-based
# Experimental: The solutions fragment of IAPP 20-29 (MM 1029 Da) are prepared in PBS buffer (100 mM, pH 7.4; NaCl 100 mM). Monomeric peptide concentration was 5.8 mM and the aggregation peptide was 32.6 μM in DMSO. Protein concentration is calculated using the calibration curve.
# Chaperonin: solutions of chaperonin B and D (25 μM), selected as non-limiting examples of Formula I, are prepared in 1.2 mL of DMSO and dilute with the buffer to obtain a final volume of […]. Curcumin (5.5 mM) used as reference compound was prepared in ethanol. (Yang, F. et al. in J. Biol Chem 2005, 280, 5892-5901). […]
# In particular, in this invention, the viability of CGC cell cultures was assessed with the 20-29 fragment of IAPP, in its monomeric and aggregated form or with the mixtures of protein:chaperonin at different molar ratios. Briefly, in all samples of CGC, half of the volume of medium is removed to add, independently, the quantities of tested protein or mixtures of peptide:chaperonin with different molar ratios (1:0.3 or 1:1). […]
# In FIG. 12, the results of the assessment of cell viability was observed by MTT assay, which were analyzed by the one-way ANOVA statistical test, followed by a posteriori LSD test (LSD for its acronym in English Least Significant Difference).
# [2] = Tubis et al. 1960; cited from earlier work
Structure (SMILES),"CGC viability with IAPP monomer plus reference compound versus monomer alone ([1]; IAPP 20-29 monomer, 20 hours, p>0.05)","CGC viability with aggregated IAPP 20-29 plus compound versus aggregated fragment alone ([1]; aggregated form of IAPP 20-29, 20 hours)",Fraction able to cross the blood brain barrier (BBB) [2] [%]
COc1cc(/C=C/C(=O)CC(=O)/C=C/c2ccc(O)c(OC)c2)ccc1O [curcumin],no significant differences,marked cytoprotective effect,
"Nc1c(/N=N/c2ccc(-c3ccc(/N=N/c4cc(S(=O)(=O)O)c5ccccc5c4N)cc3)cc2)cc(S(=O)(=O)O)c2ccccc12 [CR, Congo Red]",,,0.03

# — patent publication US9763900B2, “Chemical chaperonins as novel molecular modulators of beta protein aggregation present in conformational diseases” (Centro de Neurociencias de Cuba (NEURONIC), priority 2013, dated 2017)
